# Assay results reported in PubChem BioAssay (NCI).
# Where “and” joins values, the source holds several entries; their conditions need not be identical. Equal entries are not always repeated.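 1) Cells in 96-well plates. 2) Compound, 48 h, 5 concentrations. 3) Linear interpolation between surrounding doses. 4) Unreached endpoint = highest concentration. TGI: total growth inhibition.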
# Columns and labels:
# Assay in all cases: NCI-60 cell line screen, 48 h
# [1] = system: KM12 colon
# [2] = system: HCT-15 colon
# [3] = system: NCI/ADR-RES ovarian
# [4] = system: COLO 205 colon
# [5] = system: UACC-62 melanoma
# [6] = system: DU-145 prostate
# [7] = system: SF-539 CNS
# [8] = system: NCI-H226 lung
# [9] = system: MCF7 breast
# [10] = system: OVCAR-8 ovarian
# [11] = system: MDA-MB-435
# [12] = system: ACHN renal
# [13] = system: EKVX NSCLC
# [14] = system: OVCAR-5 ovarian
# [15] = system: CCRF-CEM leukemia
# [16] = system: SK-MEL-28 melanoma
# [17] = system: IGROV1 ovarian
# [18] = system: CAKI-1 renal
# [19] = system: LOX IMVI melanoma
# [20] = system: HS 578T breast
SMILES,TGI [1] [µM],TGI [2] [µM],TGI [3] [µM],TGI [4] [µM],TGI [5] [µM],TGI [6] [µM],TGI [7] [µM],TGI [8],TGI [9] [µM],TGI [10] [µM],TGI [11] [µM],TGI [12] [µM],TGI [13] [µM],TGI [14] [µM],TGI [15] [µM],TGI [16] [µM],TGI [17] [µM],TGI [18] [µM],TGI [19] [µM],TGI [20] [µM]
COc1cc(C2c3cc4c(cc3C(=O)C3CCC(=O)N32)OCO4)cc(OC)c1O (centres undefined),> 50,> 50,> 50,> 50,> 50,> 50,> 50,> 50 µM,> 50,> 50,> 50,> 50,> 50,> 50,> 50,> 50,> 50,–,–,–
O=[N+]([O-])c1cccc(Nc2nc(Cl)nc(Cl)n2)c1,> 100,> 100,–,> 100,> 100,–,> 100,> 100 µM,–,> 100,–,> 100,> 100,> 100,> 100,> 100,–,> 100,> 100,–
O=c1oc2c3ccc4ccccc4c3n(CCN3CCCCC3)c2c2ccccc12,> 100,> 100,–,> 100,> 78.8,–,> 49.4,–,–,> 67.3,–,> 100,> 100,> 100,> 91.7,> 100,> 100,> 100,> 100,–
CCCCCCCCC(O)c1ccc(/C=C\C(O)CCCC(=O)O)s1 (centres undefined),> 100,> 100,–,> 100,> 100,–,> 100,> 100 µM,–,> 100,–,> 100,> 100,> 100,> 100,> 100,> 100,–,> 100,–
O=[N+]([O-])c1ccc(-c2nn3c(C45CC6CC(CC(C6)C4)C5)nnc3s2)c(Cl)c1,> 100,> 100,> 100,> 100,> 100,> 100,> 100,> 100 µM,–,> 100,> 100,> 100,> 100,> 100,> 100,> 100,> 100,> 100,> 100,> 100
O=c1c(Sc2c(SCSc3cnc4ccccc4c3Sc3c[nH]c4ccccc4c3=O)cnc3ccccc23)c[nH]c2ccccc12,> 100,> 100,> 100,> 100,> 100,> 100,> 100,–,–,> 100,> 100,> 100,> 100,> 100,> 100,> 100,> 100,> 100,> 100,> 100
COc1ccccc1N/C(SCc1ccccc1)=C(/C(Cl)=C(Cl)Cl)[N+](=O)[O-],> 100,49.8,78.8,33.7,> 100,> 100,31.1,> 100 µM,> 100,27.4,42.5,> 100,> 100,> 100,> 100,28.5,–,74.9,–,–
Cc1ccc(-c2cc(-c3ccccc3)c(C#N)c(=O)[nH]2)cc1,> 100,> 100,–,> 100,> 100,–,> 100,> 100 µM,–,> 100,–,> 100,> 100,> 100,> 100,> 100,> 100,–,> 100,–
COc1ccc(/C=C\c2cc(OC)c(OC)c(OC)c2)cc1,> 100,–,–,11.5,> 100,–,0.00384,0.222 µM and 0.0693 µM,–,> 100,–,> 100,–,90.8,> 100,–,> 100,43.4,–,–
CC1=CCC(C(C)(C)NC(=O)c2ccccc2)C/C1=N/O (centres undefined),> 100,> 100,–,> 100,> 100,> 100,> 100,–,> 100,> 100,> 100,–,> 100,> 100,> 100,> 100,> 100,–,> 100,–
COc1ccc(-c2nc(-c3cnccn3)n(C3OC(CO)C(O)C3O)n2)cc1 (centres undefined),> 10,> 10,> 10,–,> 10,–,> 10,> 10 µM,> 10,> 10,> 10,> 10,> 10,> 10,> 10,–,–,–,> 10,–
C1CSCC2(COC2)CSCCSCC2(COC2)CS1,> 100,> 100,> 100,> 100,> 100,> 100,> 100,–,> 100,> 100,> 100,–,> 100,> 100,> 100,> 100,> 100,–,> 100,–
C1CCCN(NC2=NCCO2)CC1,> 100,> 100,> 100,> 100,> 100,–,> 100,> 100 µM,> 100,> 100,> 100,> 100,> 100,> 100,> 100,–,> 100,> 100,> 100,> 100
COC(=O)[C@@](NC(=O)OCc1ccccc1)([C@H](C)O)C(F)(F)F,> 100,> 100,> 100,> 100,> 100,> 100,–,> 100 µM,–,> 100,> 100,> 100,> 100,> 100,> 100,> 100,> 100,> 100,> 100,> 100
